Consider eleven compounds from patent publication US9198420B2, “Rodenticidal norbormide analogues” (priority 2012, dated 2015).

Data set [1] can be described thus: Rat serum assay (release of NRB or NRB analogue). It counts as in vitro ADME. The following applies: 80% rat serum, 37° C., 3 h, n = 3. The procedure:
The hydrolytic stability of compounds of the invention in rat blood was evaluated using in vitro rat serum obtained from Sigma-Aldrich and stored at −78° C. Similar assay conditions to those reported by Li Di and co-workers (Int. J. Pharm. 2005, 297, 110-119) were followed [200 μL total volume, 80% rat serum (diluting with phosphate buffer (0.1 M, pH 7.4)), at a final compound concentration of 200 μM, 2.5% DMSO overall, 37° C., 3 h, n=3] using an Eppendorf Thermomixer Compact. Reactions were quenched by transferring 150 μL of the incubation mixture to 450 μL of ice-cold acetonitrile, affording a final compound/NRB or NRB analogue concentration of 50 μM. Samples were centrifuged at 14,500×g for 15 min using an Eppendorf Mini Spin Plus centrifuge, at ambient temperature. 400 μL of the supernatant was removed and transferred to clean tubes. Analysis was by RP-LCMS at an injection volume of 20 μL. Each compound and corresponding NRB or NRB analogue were subjected to external calibration curves at 50 μM, 100 μM and 200 μM to allow conversion of absorbance unit area into nmol, from which the percentage of NRB or NRB analogue released from each compound was calculated.

Data set [2] can be described thus: Simulated gastric fluid (SGF) hydrolytic stability assay. The format is physicochemical. The following applies: simulated gastric fluid without pepsin, pH 1.2, 37° C., 1 h, n = 3. The procedure: All in vivo candidates were subjected to a 1 h hydrolytic stability appraisal in the presence of SGF, without pepsin (United States Pharmacopoeia 24) [200 μL total volume, sodium chloride solution (0.03 M) acidified to pH 1.2 with concentrated hydrochloric acid, at a final compound concentration of 200 μM, 2.5% DMSO overall, 37° C., n=3], to investigate any potential chemical instabilities that may occur in the acidic environment of the stomach prior to uptake. Analysis was by RP-LCMS at an injection volume of 5 μL.

The next data set concerns rat caudal artery. The data set can be described thus: Rat caudal artery ring contractile force (vasoconstrictory activity). Also on record: species or system rat (male Wistar). The protocol: Male Wistar rats (150-250 g) were obtained from Charles River Italia (Milano, Italy) and killed by decapitation. Ventral caudal artery was isolated, placed in Tyrode solution at room temperature and cleaned of extraneous fatty and connective tissue under a dissection microscope. All vessels were cut into rings 2 mm long, mounted on a custom-built plexiglass support by means of two intraluminal tungsten wires and placed in 20 mL double-jacketed organ baths filled with Tyrode solution of the following composition (mM): NaCl 125, KCl 5, CaCl2 2.7, MgSO4 1, KH2PO4 1.2, NaHCO3 25 and glucose 11, maintained at 37° C., pH 7.35, bubbled with 95% O2 and […]. The endothelium was removed by gently rubbing the lumen of the rings with a very thin rough-surfaced tungsten wire (caudal artery). The mechanical activity of the rings was detected by means of an isometric force transducer (Ugo Basile, Comerio, Italy) coupled to a pen recorder (Ugo Basile, Comerio, Italy). Rings were passively stretched to impose a resting tension (2 g) and were allowed to equilibrate for 60 min. After equilibration, each ring was repeatedly simulated with both KCl (90 mM) and phenylephrine (10 μM) until reproducible responses were obtained. To verify the absence of the endothelium, rings contracted with 1 μM phenylephrine were exposed to […] carbamylcholine. […] Each compound was tested for the vasoconstrictor activity at a concentration of 50 μM, which has been previously reported to be the one evoking the maximal response to norbormide. The contractile responses to the compounds were expressed as percent of the 90 mM KCl response.

Another data set has as its system Sprague Dawley rats. The data set can be described thus: In vivo lethality, oral gavage. Also on record: species or system rat (Sprague Dawley). The following applies: rat, n = 2. The protocol: Sprague Dawley rats (150-200 g) were used to appraise the rodenticidal activity of the compounds put forward for in vivo evaluation. Briefly, prior to administration the compounds were dissolved in 0.2 M hydrochloric acid (5% DMSO overall), to the desired dose, and without delay either injected intravenously, via the tail, or orally gavaged. All treated animals were housed in a quiet room and monitored every minute (i.v) or every 15 min (oral) to verify early signs of toxicity.

The mark [3] stands for this setting: Table 5, compounds of formula (III).
The mark [4] stands for this setting: Table 1, read-out: Vasoconstriction: maximum contractile effect as a % of 90 mM KCl contraction.

Where two headings read alike, the source gives them in different places.

`O=C(CCCCCCCCCCC(=O)OCN1C(=O)C2C3C=C(C(O)(c4ccccc4)c4ccccn4)C(C3=C(c3ccccc3)c3ccccn3)C2C1=O)OCN1C(=O)C2C3C=C(C(O)(c4ccccc4)c4ccccn4)C(C3=C(c3ccccc3)c3ccccn3)C2C1=O` (stereo not drawn) [Compound 25, N-Dodecanedioyloxymethyl-5-(α-hydroxy-α-2-pyridylbenzyl)-7-(α-2-pyridylbenzylidene)-5-norbornene-2,3-dicarboximide dimer]: in data set [1], the “% NRB released, Rat Serum” value is below 5%. In addition, the “% NRB released, Hydrolytic Stability” value in data set [2] is on record as 0%. The “Vasoconstriction: maximum contractile effect as a % of 90 mM KCl contraction” value in the data set with rat caudal artery (setting [3]) worked out at 0%; in the data set with rat caudal artery (n = 3, pre-cleavage, Table 6), 0%.

Turning to `O=C(C=Cc1ccccc1)OCCN1C(=O)C2C3C=C(C(O)(c4ccccc4)c4ccccn4)C(C3=C(c3ccccc3)c3ccccn3)C2C1=O` (stereo not drawn) [Compound 120, N-2′-Cinnamoyloxyethyl-5-(α-hydroxy-α-2-pyridylbenzyl)-7-(α-2-pyridylbenzylidene)-5-norbornene-2,3-dicarboximide], in data set [1], the “% NRB released, Rat Serum” value was 14.1 ± 0.4%. In addition, the “% NRB released, Hydrolytic Stability (simulated gastric fluid)” value in data set [2] (footnote c: compounds not exhibiting vasoconstriction) is listed as 0^c %. The “Vasoconstriction: maximum contractile effect as a % of 90 mM KCl contraction” value in the data set with rat caudal artery (Table 1, compound at 50 μM) is 66%; in the data set with rat caudal artery (Table 4, pre-cleavage, n = 3), 66%.

As to `O=C(CCC(=O)OCCN1C(=O)C2C3C=C(C(O)(c4ccccc4)c4ccccn4)C(C3=C(c3ccccc3)c3ccccn3)C2C1=O)OCCN1C(=O)C2C3C=C(C(O)(c4ccccc4)c4ccccn4)C(C3=C(c3ccccc3)c3ccccn3)C2C1=O` (stereo not drawn) [Compound 138, 5-(α-Hydroxy-α-2-pyridylbenzyl)-7-(α-2-pyridylbenzylidene)-N-2′-succinoyloxyethyl-5-norbornene-2,3-dicarboximide dimer], the “% NRB released, Rat Serum” value in data set [1] worked out at 7.7 ± 0.2%. Moreover, the “% NRB released, Hydrolytic Stability” value in data set [2] is recorded as 0%. The “Vasoconstriction: maximum contractile effect as a % of 90 mM KCl contraction” value was found to be 0% in the data set on rat caudal artery (setting [3]) and 0% in the data set with rat caudal artery (n = 3, pre-cleavage, Table 6).

For `O=C(CCC(=O)OCN1C(=O)C2C3C=C(C(O)(c4ccccc4)c4ccccn4)C(C3=C(c3ccccc3)c3ccccn3)C2C1=O)OCN1C(=O)C2C3C=C(C(O)(c4ccccc4)c4ccccn4)C(C3=C(c3ccccc3)c3ccccn3)C2C1=O` (stereo not drawn) [Compound 21, 5-(α-Hydroxy-α-2-pyridylbenzyl)-7-(α-2-pyridylbenzylidene)-N-succinoyloxymethyl-5-norbornene-2,3-dicarboximide dimer], the “% NRB released, Rat Serum” value in data set [1] was found to be 29.6 ± 5.4%. Also, in data set [2], the “% NRB released, Hydrolytic Stability” value was 0%. Also, the “Vasoconstriction: maximum contractile effect as a % of 90 mM KCl contraction” value with rat caudal artery (setting [3]) amounted to 0%; in the data set with rat caudal artery (n = 3, pre-cleavage, Table 6), 0%.

Consider `COC(=O)C(N)CC(=O)OCCN1C(=O)C2C3C=C(C(O)(c4ccccc4)c4ccccn4)C(C3=C(c3ccccc3)c3ccccn3)C2C1=O.O=C(O)C(F)(F)F` (stereo not drawn) [Compound 343, 5-(α-Hydroxy-α-2-pyridylbenzyl)-N-[2′-(α-methylaspartoyloxy)ethyl]-7-(α-2-pyridylbenzylidene)-5-norbornene-2,3-dicarboximide trifluoroacetate], for which the “In vivo lethality (oral)” value in the data set on Sprague Dawley rats (20 mg/Kg) and with Sprague Dawley rats (40 mg/Kg) was “yes^h,i” throughout. Moreover, the “Vasoconstriction: maximum contractile effect as a % of 90 mM KCl contraction” value with rat caudal artery (Table 1, compound at 50 μM) is 140%; with rat caudal artery (Table 4, pre-cleavage, n = 3) it was 149%.

With `O=C(OCN1C(=O)C2C3C=C(C(O)(c4ccccc4)c4ccccn4)C(C3=C(c3ccccc3)c3ccccn3)C2C1=O)C(c1ccccc1)c1ccccc1` (stereo not drawn) [Compound 17, N-Diphenylacetyloxymethyl-5-(α-hydroxy-α-2-pyridylbenzyl)-7-(α-2-pyridylbenzylidene)-5-norbornene-2,3-dicarboximide], the “In vivo lethality (oral)” value in the data set on Sprague Dawley rats (40 mg/Kg) was “no^h”. Also, the Emax in the data set on rat caudal artery (setting [4]) turned out to be 0%. For the same compound, the “Vasoconstriction: maximum contractile effect as a % of 90 mM KCl contraction” value with rat caudal artery (Table 4, pre-cleavage, n = 3) is recorded as 0%.

For `CCCCCCCC(=O)NCCN1C(=O)C2C3C=C(C(O)(c4ccccc4)c4ccccn4)C(C3=C(c3ccccc3)c3ccccn3)C2C1=O` (stereo not drawn) [Compound 364, 5-(α-Hydroxy-α-2-pyridylbenzyl)-N-2′-octanamidoethyl-7-(α-2-pyridylbenzylidene)-5-norbornene-2,3-dicarboximide], the “In vivo lethality (oral)” value with Sprague Dawley rats (20 mg/Kg) and with Sprague Dawley rats (40 mg/Kg) was “yes^h,i” in each case. The “Vasoconstriction: maximum contractile effect as a % of 90 mM KCl contraction” value in the data set with rat caudal artery (Table 2, compound at 50 μM) is given as 21%; in the data set with rat caudal artery (Table 4, pre-cleavage, n = 3), 21%.

In the case of `CCCCCCCCOC(=O)CN1C(=O)C2C3C=C(C(O)(c4ccccc4)c4ccccn4)C(C3=C(c3ccccc3)c3ccccn3)C2C1=O` (stereo not drawn) [Compound 369, 5-(α-Hydroxy-α-2-pyridylbenzyl)-N-octyloxycarbonylmethyl-7-(α-2-pyridylbenzylidene)-5-norbornene-2,3-dicarboximide], in the data set with Sprague Dawley rats (40 mg/Kg), the “In vivo lethality (oral)” value is on record as “no^h”. Moreover, the Emax with rat caudal artery (Table 3, read-out: Vasoconstriction: maximum contractile effect as a % of 90 mM KCl contraction) worked out at 0%. The “Vasoconstriction: maximum contractile effect as a % of 90 mM KCl contraction” value in the data set on rat caudal artery (Table 4, pre-cleavage, n = 3) is 0%.

As for `COc1ccc(C=CC(=O)NCCN2C(=O)C3C4C=C(C(O)(c5ccccc5)c5ccccn5)C(C4=C(c4ccccc4)c4ccccn4)C3C2=O)cc1` (stereo not drawn) [Compound 361, 5-(α-Hydroxy-α-2-pyridylbenzyl)-N-[2′-(4″-methoxycinnamamido)ethyl]-7-(α-2-pyridylbenzylidene)-5-norbornene-2,3-dicarboximide], the “In vivo lethality (oral)” value in the data set on Sprague Dawley rats (20 mg/Kg) and with Sprague Dawley rats (40 mg/Kg) was “yes^h,i” each time. Besides, in the data set with rat caudal artery (Table 2, read-out: Vasoconstriction: maximum contractile effect as a % of 90 mM KCl contraction), the Emax was 21%. Moreover, the “Vasoconstriction: maximum contractile effect as a % of 90 mM KCl contraction” value in the data set on rat caudal artery (Table 4, pre-cleavage, n = 3) is 21%.

For `CS(=O)(=O)c1ccc(C=CC(=O)OCCN2C(=O)C3C4C=C(C(O)(c5ccccc5)c5ccccn5)C(C4=C(c4ccccc4)c4ccccn4)C3C2=O)cc1` (stereo not drawn) [Compound 329, 5-(α-Hydroxy-α-2-pyridylbenzyl)-N-[2′-(4″-methylsulfonylcinnamoyloxy)ethyl]-7-(α-2-pyridylbenzylidene)-5-norbornene-2,3-dicarboximide], in the data set on Sprague Dawley rats (40 mg/Kg), the “In vivo lethality (oral)” value is “yes^h”. In the data set with rat caudal artery (setting [4]), the Emax turned out to be 88%. Also, the “Vasoconstriction: maximum contractile effect as a % of 90 mM KCl contraction” value in the data set on rat caudal artery (Table 4, pre-cleavage, n = 3) was found to be 88%.

Consider `CC(=O)Nc1ccc(C=CC(=O)OCCN2C(=O)C3C4C=C(C(O)(c5ccccc5)c5ccccn5)C(C4=C(c4ccccc4)c4ccccn4)C3C2=O)cc1` (stereo not drawn) [Compound 337, N-[2′-(4″-Acetamidocinnamoyloxy)ethyl]-5-(α-hydroxy-α-2-pyridylbenzyl)-7-(α-2-pyridylbenzylidene)-5-norbornene-2,3-dicarboximide], for which, in the data set with Sprague Dawley rats (40 mg/Kg), the “In vivo lethality (oral)” value is “yes^h”. In addition, the Emax with rat caudal artery (setting [4]) was determined as 97%. Moreover, the “Vasoconstriction: maximum contractile effect as a % of 90 mM KCl contraction” value in the data set with rat caudal artery (Table 4, pre-cleavage, n = 3) stood at 97%.
